From US5734081A, “Arylthio compounds” (Warner-Lambert Company, priority 1995, dated 1998)

Experiments:
[1] = target: T1, HIV-1 Nucleocapsid Protein (NCp7) (Human immunodeficiency virus type 1 group M subtype B, UniProt P12493); assay: Zinc extrusion assay (TSQ fluorescence) from the zinc fingers of HIV-1 nucleocapsid protein (NCp7); assay type: biochemical; settings: 10 μM compound, 2.8 μM NCp7, pH 7.4, 26° C., 90 minutes
T1 construct: The NCp7 protein containing 2 Zn-fingers and 2 Zn ions is incubated with drug
Method in brief: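 Purified NCp7 (2.8 μM, 2 Zn ions) incubated with 10 μM compound and 47 μM TSQ at pH 7.4, 26° C, 90 min; released Zn read by TSQ fluorescence (ex 355, em 400 nm) over time. % extrusion = measured fluorescence over that for full theoretical Zn release (5.6 μM) ×100.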

HIV-1 = assay: HIV H9 cell assay, anti-HIV-1 activity; assay type: cell-based; settings: Human immunodeficiency virus 1, H9, 168 h, read-out: EC50 (Effective Concentration which protects cells from viral cytopathic effects)
Text: Another test system utilized to evaluate the invention compounds is called HIV H9 assay. The HIV H9 cell assay measures the inhibitor concentration required to suppress HIV-1 virus replication. In this system, viral growth occurs through multiple rounds of the life-cycle. Any suppression of the replication kinetics results in a geometric decrease in virus production. As a result, this assay is a sensitive means of measuring the ability of a compound to inhibit HIV-1 viral replication.
(§1) The H9 T-cell line is batch infected with HIV virus at an M0I of 0.01. After 2 hours absorption, the cells are washed, resuspended in RPMI-1640/10% fetal calf serum, and seeded at […] of a 96-well plate. A duplicate plate of uninfected H9 cells is prepared for the cytotoxicity assay. Drugs are serially diluted 1/3.16 in DMSO, transferred to media at an 8× concentration, and then added to the cultures in triplicate. The final DMSO concentration of 0.002 (0.2%).
(§2) Viral production is measured by RT assay and cytotoxicity is measured by XTT assay at 7 days post-infection. The RT assay is performed as a modification of Borroto-Esoda and Boone, J. Virol., 1991;65:1952-1959 and quantitated using a Molecular Dynamics Phosphoimager with Imagequant software. The XTT assay is performed as a modification of Roehm, et al., J. Immuno. Methods., 1991;142:257-265 and quantitated using a molecular Devices Thermomax plate reader with Softmax software.
(§3) Data is electronically transferred to a Microsoft Excell spreadsheet for analysis. The RT assay values equivalent to 50% and 90% inhibition of virus production are calculated from the untreated controls. The concentrations of inhibitor required to produce these values (IC50 and IC90) are interpolated from data points flanking these RT activities. The XTT assay values equivalent to 50% cytotoxicity are calculated from the untreated controls. The concentrations of inhibitor required to produce this value are interpolated from data points flanking these XTT values.

[2] = H9 cell cytotoxicity (XTT assay, uninfected cells); assay type: cell-based; settings: human, drug alone, read-out: IC50 (Inhibitory Concentration where drug alone inhibits cell growth)
Description: as §1, §2, §3

[3] = CEM cell growth inhibition (XTT, noninfected cells); assay type: cell-based; settings: human, CEM Cell Assay, drug alone, read-out: IC50 (Inhibitory Concentration where drug alone inhibits cell growth)
Method in brief: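 Uninfected CEM T4 lymphocytes were run alongside HIV-infected cultures. Compound in DMSO was diluted 1:200 in medium, then in half-log10 steps, and added to an equal volume of cells.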

HIV-1IIIb [4] = assay: Anti-HIV activity, HIV-1IIIb in MT-2 cells; assay type: cell-based; settings: Human immunodeficiency virus 1, MT2; MT-2, HIV-1IIIb
Description: (§4) The compounds of the invention were also evaluated against various other HIV strains and cell lines utilizing the assay methodology described above. The compounds were additionally evaluated against clinical isolates of HIV strains.

HIV-1A17 = assay: Anti-HIV activity, HIV-1A17 in MT-4 cells; assay type: cell-based; settings: Human immunodeficiency virus 1, MT4
Description: as §4

HIV-1N119 = assay: Anti-HIV activity, HIV-1N119 in CEM cells; assay type: cell-based; settings: Human immunodeficiency virus 1, CCRF-CEM
Description: Yet another test system employed to determine antiviral activity is called the CEM cell assay.
T4 lymphocytes (CEM cell line) are exposed to HIV at a virus to cell ratio approximately 0.05, and plated along with noninfected control cells in 96-well microliter plates.
The candidate agent is dissolved in dimethyl sulfoxide (unless otherwise noted), then diluted 1:200 in cell culture medium. Further dilutions (half-log10) are prepared before adding to an equal volume of medium containing either infected or noninfected cells. Cultures are incubated at 37° in a 5% carbon dioxide atmosphere for 6 or 7 days. The tetrazolium salt, XTT, is added to all wells, and cultures are incubated to allow formazan color development by viable cells (J. National Cancer Institute, 1989;81:577-586). Individual wells are analyzed spectrophotometrically to quantitate formazan production, and in addition are viewed microscopically for detection of viable cells confirmation of protective activity.
Drug-tested virus-infected cells are compared with drug-treated noninfected cells and with other appropriate controls (untreated infected and untreated noninfected cells, drug-contain wells without cells, etc.) on the same plate. Data are reviewed in comparison with other tests done at the same time and a determination about activity is made.
as §4

HIV-1IIIb [5] = assay: Anti-HIV activity, HIV-1IIIb in AA5 cells; assay type: cell-based; settings: Human immunodeficiency virus 1; AA5, HIV-1IIIb
Description: as §4

HIV-1VIHU = assay: Anti-HIV activity, clinical isolate HIV-1VIHU in PBL; assay type: cell-based; settings: Human immunodeficiency virus 1
Description: as §4

HIV-1WEIO = assay: Anti-HIV activity, clinical isolate HIV-1WEIO in PBL; assay type: cell-based; settings: Human immunodeficiency virus 1
Description: as §4

HIV-1BAKI = assay: Anti-HIV activity, clinical isolate HIV-1BAKI in PBL; assay type: cell-based
Description: as §4

HIV-1WOME = assay: Anti-HIV activity, clinical isolate HIV-1WOME in PBL; assay type: cell-based; settings: Human immunodeficiency virus 1
Description: as §4

[6] = Human immunodeficiency virus 1, PBL

## NS(=O)(=O)c1ccc(NC(=O)c2ccccc2SSc2ccccc2C(=O)Nc2ccc(S(N)(=O)=O)cc2)cc1 [Example 1]
[1]
  % Zinc Extrusion Relative to Control: 20%
HIV-1
  EC50: 700 nM
[2]
  CC50 at 168 h: 36 µM
[3]
  CC50: > 120 µM
HIV-1IIIb [4]
  EC50: 2.6 µM
HIV-1A17
  EC50: 600 nM
HIV-1N119
  EC50: 2200 nM
HIV-1IIIb [5]
  EC50: 900 nM
HIV-1VIHU
  EC50: 3.6 µM
HIV-1WEIO
  EC50: 3.5 µM
HIV-1BAKI; [6]
  EC50: 300 nM
HIV-1BAKI; PBL
  EC50: 250 nM
HIV-1WOME
  EC50: 4 µM

## CC(=O)Nc1ccc(SSc2ccc(NC(C)=O)cc2C(N)=O)c(C(N)=O)c1 [Example 9, 2,2'-Dithiobis(5-acetylamino)benzamide]
[1]
  % Zinc Extrusion Relative to Control: 77%
HIV-1
  EC50: 1700 nM
[2]
  CC50 at 168 h: > 100 µM
[3]
  CC50: > 120 µM
HIV-1IIIb [4]
  EC50: 9.4 µM
HIV-1A17
  EC50: 2400 nM
HIV-1N119
  EC50: 2300 nM
HIV-1IIIb [5]
  EC50: 3500 nM
HIV-1VIHU
  EC50: 5.2 µM
HIV-1WEIO
  EC50: 7.5 µM
HIV-1BAKI; [6]
  EC50: 1800 nM
HIV-1WOME
  EC50: 5.7 µM
